Measurements as given in patent publication US5789447A, “Nitric oxide releasing compounds as protective agents in ischemia reperfusion injury” (priority 1995, dated 1998).
Entries after “also recorded” stand apart in the source; their conditions may differ.

How the values were obtained:
[1] = tested on: Chinese hamster V79 lung fibroblasts; test: V79 clonogenic survival, hypoxanthine/xanthine oxidase (HX/XO) cytotoxicity
Protocol: Chinese hamster V79 lung fibroblasts were cultured in F12 medium supplemented with 10% fetal calf serum and antibiotics. Cell survival was assessed by clonogenic assay with 85-95% plating efficiency. Stock cultures of exponentially growing cells were trypsinized, rinsed, and plated (7×10^5 cells/dish) into a number of 100 cm^2 petri dishes and incubated 16 hr at 37° C. prior to experimental protocols.
It has been shown that exposure of V79 cells to hydrogen peroxide results in dose-dependent cytotoxicity (Mitchell et al., supra).
HX and XO were purchased from Boehringer Co. (Indianapolis, Ind.). Nitrite, diethylamine, sulfinamide, diethylenetriaminepentaacetic acid (DETAPAC) and N-(1-naphthyl)ethylenediaminedihydrogenchloride (NEDD) were purchased from Aldrich (Milwaukee, Wis.). Cytosine-β-D-arabinofuranoside and ferricytochrome c were purchased from Sigma (St. Louis, Mo.). DEA/NO and SPER/NO were synthesized as previously described (Maragos et al., (1991), supra).
Exponentially growing cultures of Chinese hamster V79 fibroblasts were exposed to either HX/XO (final concentration of HX was 0.5 mM; 0.08 units/ml XO were used) for various amounts of time (FIG. 1A) or to various concentrations of hydrogen peroxide for one hour (FIG. 1B). […] Additionally, 1 mM DEA/NO was added to medium in the absence of cells, incubated at 37° C. for 1 hr or 16 hrs, and then added just prior to the addition of hydrogen peroxide to evaluate the effects of DEA/NO which had released NO. After treatment, cell monolayers were rinsed twice with phosphate-buffered saline (PBS), trypsinized, counted and plated in triplicate for macroscopic colony formation. Each dose determination was plated in triplicate and experiments were repeated a minimum of two times. Plates were incubated for 7 days, after which colonies were fixed with methanol/acetic acid (3:1), stained with crystal violet, and counted. Colonies containing more than 50 cells were scored.

[2] = tested on: Chinese hamster V79 lung fibroblasts; test: V79 clonogenic survival, hydrogen peroxide cytotoxicity; assay type: cell-based
Source text: Colonies containing more than 50 cells were scored.

XO [3] = biological target: T1, XO (Bos taurus, UniProt P80457); test: XO activity by superoxide-induced reduction of ferricytochrome c; assay type: biochemical
T1 sequence (P80457 whole entry): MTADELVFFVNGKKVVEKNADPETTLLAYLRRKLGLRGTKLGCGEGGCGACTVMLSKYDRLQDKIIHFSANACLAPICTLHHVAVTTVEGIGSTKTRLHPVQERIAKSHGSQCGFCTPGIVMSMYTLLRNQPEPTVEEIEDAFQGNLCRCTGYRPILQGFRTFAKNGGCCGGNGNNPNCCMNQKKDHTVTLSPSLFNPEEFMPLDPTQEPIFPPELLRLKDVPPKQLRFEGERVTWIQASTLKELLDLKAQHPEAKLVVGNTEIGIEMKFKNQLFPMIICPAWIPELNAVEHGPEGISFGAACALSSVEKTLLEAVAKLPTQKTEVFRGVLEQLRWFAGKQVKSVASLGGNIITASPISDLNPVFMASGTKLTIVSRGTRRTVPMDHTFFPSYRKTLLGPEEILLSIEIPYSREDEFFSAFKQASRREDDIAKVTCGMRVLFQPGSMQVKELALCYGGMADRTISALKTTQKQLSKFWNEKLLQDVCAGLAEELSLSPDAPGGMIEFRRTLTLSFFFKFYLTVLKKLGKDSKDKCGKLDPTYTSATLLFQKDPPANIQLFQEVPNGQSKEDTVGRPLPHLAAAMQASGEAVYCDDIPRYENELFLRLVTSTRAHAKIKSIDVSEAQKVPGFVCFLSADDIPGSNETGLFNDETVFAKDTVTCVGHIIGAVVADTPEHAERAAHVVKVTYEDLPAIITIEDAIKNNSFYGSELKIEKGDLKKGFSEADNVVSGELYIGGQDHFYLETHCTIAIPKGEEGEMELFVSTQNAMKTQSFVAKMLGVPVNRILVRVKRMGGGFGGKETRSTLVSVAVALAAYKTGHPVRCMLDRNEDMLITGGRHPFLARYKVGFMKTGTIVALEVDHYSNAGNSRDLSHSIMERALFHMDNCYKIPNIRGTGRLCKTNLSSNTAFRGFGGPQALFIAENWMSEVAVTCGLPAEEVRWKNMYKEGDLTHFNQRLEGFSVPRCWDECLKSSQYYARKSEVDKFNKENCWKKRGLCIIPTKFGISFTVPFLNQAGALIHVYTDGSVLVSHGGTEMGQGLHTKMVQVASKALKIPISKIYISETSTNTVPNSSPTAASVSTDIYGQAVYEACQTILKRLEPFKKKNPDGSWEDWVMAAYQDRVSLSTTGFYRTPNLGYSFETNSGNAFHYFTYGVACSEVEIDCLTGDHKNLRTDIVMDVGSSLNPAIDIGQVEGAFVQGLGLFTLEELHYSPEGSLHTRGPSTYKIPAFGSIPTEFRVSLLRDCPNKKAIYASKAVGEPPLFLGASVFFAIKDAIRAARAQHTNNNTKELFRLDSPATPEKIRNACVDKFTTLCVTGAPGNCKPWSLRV
Protocol: (§1) The activity of XO was monitored in the absence and presence of 1 mM DEA/NO by two different assays. Superoxide-induced reduction of ferricytochrome c to ferrocytochrome c was monitored spectrophotometrically at 550 nm (Fridovich, Handbook of Method for Oxygen Radical Research, pages 213-215 (1985)). The reaction was carried out in a 1 ml volume in aerated phosphate buffer (pH 7.8, 50 mM) containing 50 μM DETAPAC. HX was maintained at 2.5 mM and ferricytochrome c at 20 μM. The reactions were initiated with the addition of XO (final concentration of 0.2 units/ml). The activity of XO in the absence and presence of 1 mM DEA/NO was directly monitored by measuring the production of uric acid spectrophotometrically at 305 nm for 10 min under the same conditions but in the absence of ferricytochrome c. All enzymatic assays and chemical reactions were done at 37° C.

XO [4] = biological target: T1, XO; test: XO activity by uric acid production at 305 nm; assay type: biochemical
Protocol: as §1

[5] = Chemical controls: DEA/NO or NO with hydrogen peroxide; assay type: physicochemical; conditions: presence of 1 mM hydrogen peroxide
Protocol: Anaerobic solutions of 1 mM hydrogen peroxide in 10 mM phosphate buffer, pH 7.4, were mixed with 1 mM NO. […] The rate of decomposition of DEA/NO was unaffected by the presence of 1 mM hydrogen peroxide; likewise, hydrogen peroxide was not consumed by DEA/NO or intermediates of the DEA/NO decomposition reaction as measured by the production of I3^- (Hochanadel, J. Phys. Chem., 56, 587-594 (1952)).

[6] = tested on: ventral mesencephalic cells; test: [3H]dopamine uptake after hydrogen peroxide or HX/XO exposure; assay type: cell-based, Sprague Dawley rats
Protocol: (§2) The ventral tegmental mesencephalon was dissected from 14 day old embryos (precisely timed pregnant Sprague Dawley rats; Zivic-Miller, Allison Park, Pa.) under sterile conditions and mechanically dissociated into complete culture medium. The culture medium consisted of a 1:1 mixture of modified minimum essential medium and nutrient mixture F-12 supplemented with 6 mg/ml D-gluose, 2 mM glutamine, 0.5 U/ml penicillin G, 0.5 mg/ml streptomycin (all from Gibco, Grand Island, N.Y.) and 15% equine serum (Hyclone, Logan, Utah). Cells were plated into multiwell plates that were previously coated with poly-D-lysine (15 μg/ml) and laminin (10 μg/ml) at a density of 40,000 cells/cm^2 (Costar). The cells were maintained for 5-7 days at 37° C. in an atmosphere of 95% air and 5% CO2 saturated with H2 O. On the fifth day of culture 1 μM cytosine-β-D-arabinofuranoside was added to inhibit glial cell growth.
Uptake of dopanine by dopaminergic neurons was assayed as follows. The cells in each well were washed three times with 1 ml PBS containing 6 mg/ml glucose and thereafter Dulbecco's modified essential medium (Quality Biological, Inc., Farmingham, Mass.) containing 6 mg/ml D-glucose, 50 μM ascorbic acid, and 5×10^-8 M [^3 H]dopamine (NEN, Boston, Mass.; specific activity of […]) was added and incubated for 15 min at 37° C. [^3 H]dopamine uptake was stopped by aspirating the incubation solution and washing the cells three times with ice-cold PBS containing 6 mg/ml D-glucose. The cells were removed by washing the wells with an equal volume of 0.2N NaOH and 0.2N HCl containing 0.02% Triton X-100. The residual intracellular radioactivity in the cells was determined by scintillation spectroscopy.
Accordingly, ventral mesencephalic cell cultures were exposed to 100 μM H2 O2 for 1 hr in the presence and absence of 100 μM DEA/NO and evaluated for their ability to take up dopamine.
In a separate study, cells were cultured for 7 days and then exposed to 50 or 100 μM hydrogen peroxide for 60 min or to 0.04 units/ml HX/XO for 5 or 10 min in the absence or presence of 100 μM DEA/NO. The cells were washed with PBS containing 6 g/l D-glucose, culture medium was added, and the cells were incubated for 18 hr. The ability of the cells (6 wells of 450,000 cells/well per group) to take up ^3 [H]-dopamine was measured. These cells were exposed to ten times less hydrogen peroxide or HX/XO than the V79 cells described above.

mesencephalic neurons = test: Morphology of mesencephalic neurons (neurites and somas); assay type: cell-based, Sprague Dawley rats
Protocol: as §2
When cells were exposed to hydrogen peroxide for 1 hr, varicosities formed in the neurites and somas swelled. Exposure to HX/XO for as short as 5 min elicited similar morphological changes in mesencephalic neurons.

neuronal cell death = conditions: Lafon-Cazal et al.; cited from earlier work
NMDA receptor = conditions: U.S. Pat. No. 5,234,956; cited from earlier work
platelet aggregation = conditions: Rubanyi et al.; cited from earlier work
[7] = tested on: endothelial cell monolayers; conditions: Radomski et al.; cited from earlier work
[8] = tested on: Leukocyte-endothelial cell adhesive interactions; conditions: postcapillary venules; Kubes et al. 1991; cited from earlier work
[9] = tested on: Primary neuronal cell cultures; conditions: as high as 1 mM; cited from earlier work
[10] = Kanner et al.; cited from earlier work
[11] = Saran et al. 1990; cited from earlier work
lung tissue = conditions: high concentrations in the gas phase; cited from earlier work
[12] = 100 μM with hydrogen peroxide or HX/XO

## CCN(CC)/[N+]([O-])=N/[O-].[Na+] [DEA/NO]
[1]; 0.1 mM
  protection against HX/XO-induced cell killing: marginal protection
[1]; 1 mM
  protection against HX/XO-induced cell killing: significantly protected against cell killing
[2]; 1 mM, added just prior to hydrogen peroxide, 1 hr exposure
  protection against hydrogen peroxide cytotoxicity: nearly complete protection
[2]; 1 mM, allowed to release NO for 1 hr prior to hydrogen peroxide
  protection against hydrogen peroxide cytotoxicity: only modest protection
[2]; 1 mM, incubated 16 hr in medium prior to hydrogen peroxide
  effect on hydrogen peroxide cytotoxicity: enhanced the cytotoxicity of hydrogen peroxide
[2]; 1 hr hydrogen peroxide followed by 1 hr treatment with 1 mM
  effect of treatment after hydrogen peroxide: did not treat oxygen free radical mediated tissue damage
XO [3]; 1 mM, preincubated with HX/XO
  inhibition of XO activity, production of superoxide (cytochrome c reduction): did not inhibit the activity of XO
XO [3]; presence of DEA/NO
  SOD sensitive ferricytochrome c reduction: quenching; also recorded: inhibited
XO [4]; 1 mM, preincubated with HX/XO
  inhibition of XO activity, uric acid production: did not inhibit the activity of XO
XO [4]; presence of DEA/NO
  uric acid production (UV 305 nm) / XO substrate turnover: not inhibited; also recorded: nor affect XO substrate turnover
[5]
  rate of decomposition / rate of formation of NO: not altered; also recorded: unaffected
[6]; 100 μM DEA/NO with 50 μM H2O2, 60 min
  [3H] Dopamine Uptake: 2.8 ± 0.11 pmol/well/15 min
[6]; 100 μM DEA/NO with 100 μM H2O2, 60 min
  [3H] Dopamine Uptake: 2.6 ± 0.22 pmol/well/15 min
[6]; 100 μM DEA/NO with 0.04 U/ml HX/XO, 5 min
  [3H] Dopamine Uptake: 2.6 ± 0.15 pmol/well/15 min
[6]; 100 μM DEA/NO with 0.04 U/ml HX/XO, 10 min
  [3H] Dopamine Uptake: 2.3 ± 0.10 pmol/well/15 min
[6]; 100 μM DEA/NO, no addition (None)
  [3H] Dopamine Uptake: 2.7 ± 0.11 pmol/well/15 min
[6]; [12]
  protection of dopamine uptake: complete protection
[6]; hydrogen peroxide in presence of DEA/NO (100 μM, 1 hr), FIG. 3
  retained function (dopamine uptake): ~100%
Mesencephalic neurons; 100 μM alone, 1 hr
  morphological changes: failed to cause morphological changes
Mesencephalic neurons; [12]
  abnormalities in the neurites and somas: did not demonstrate abnormalities in the neurites and somas

## CC1(C)CCC=[N+]1[O-] [DMPO]
Neuronal cell death
  reduction of neuronal cell death: more efficiently than the nitric oxide synthase inhibitor L-N-nitroarginine

## O=[N+]([O-])OCC(CO[N+](=O)[O-])O[N+](=O)[O-] [nitroglycerin]
NMDA receptor
  NMDA receptor-mediated neuronal damage: reduce NMDA receptor-mediated neuronal damage

## nitric oxide [NO]
Platelet aggregation
  platelet aggregation: block platelet aggregation
[7]
  platelet adhesion to endothelial cell monolayers: reduce platelet adhesion to endothelial cell monolayers
[8]
  leukocyte-endothelial cell adhesive interactions: inhibited
[9]
  adverse effects in primary neuronal cell cultures: no adverse effects
[10]
  quenching of Fenton-type oxidation: could quench Fenton-type oxidation
[11]
  reaction rate constant for NO and O2: 5.6×10^7 M^-1 S^-1
Lung tissue
  lung tissue damage: damages lung tissue
